In one data set the target is T1, human OX2 receptor (Homo sapiens, UniProt O43614).
T1 construct: expressed in transfected cells; host or cells: CHO cells
T1 sequence (O43614 1-444): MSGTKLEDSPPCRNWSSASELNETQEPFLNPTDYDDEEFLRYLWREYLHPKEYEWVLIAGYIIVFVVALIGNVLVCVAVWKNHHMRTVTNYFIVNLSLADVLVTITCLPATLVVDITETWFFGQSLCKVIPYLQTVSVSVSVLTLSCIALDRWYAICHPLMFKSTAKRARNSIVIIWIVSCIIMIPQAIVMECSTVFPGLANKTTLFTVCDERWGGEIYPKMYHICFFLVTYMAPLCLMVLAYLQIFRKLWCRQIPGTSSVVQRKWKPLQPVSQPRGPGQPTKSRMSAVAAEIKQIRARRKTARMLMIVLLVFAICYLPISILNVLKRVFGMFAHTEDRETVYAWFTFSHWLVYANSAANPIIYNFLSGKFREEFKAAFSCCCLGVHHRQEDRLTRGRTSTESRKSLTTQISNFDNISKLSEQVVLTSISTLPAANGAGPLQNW
As to the kind of experiment: Measurement of orexin receptor antagonistic activity (calcium fluorescence, FLIPRtetra). In kind it is cell-based. The note with it: CHO, 10 μM test compound; CHO cells expressing human OX2 receptor; OX-A 0.3 nM; read-out: Human Orexin2 receptor inhibition (at 10 μM). The method in brief:
(§1)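 CHO cells expressing human OX1 or OX2 receptor, cultured one day. Compound in HBSS/20 mM HEPES/0.1% BSA added, then orexin-A at 1 nM final (OX1) or 0.3 nM final (OX2); calcium fluorescence by FLIPRtetra every 1 s for 2 min.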

Another data set addresses T2, human OX1 receptor (Homo sapiens, UniProt O43613).
T2 construct: expressed in transfected cells; host or cells: CHO cells
T2 sequence (O43613 1-425): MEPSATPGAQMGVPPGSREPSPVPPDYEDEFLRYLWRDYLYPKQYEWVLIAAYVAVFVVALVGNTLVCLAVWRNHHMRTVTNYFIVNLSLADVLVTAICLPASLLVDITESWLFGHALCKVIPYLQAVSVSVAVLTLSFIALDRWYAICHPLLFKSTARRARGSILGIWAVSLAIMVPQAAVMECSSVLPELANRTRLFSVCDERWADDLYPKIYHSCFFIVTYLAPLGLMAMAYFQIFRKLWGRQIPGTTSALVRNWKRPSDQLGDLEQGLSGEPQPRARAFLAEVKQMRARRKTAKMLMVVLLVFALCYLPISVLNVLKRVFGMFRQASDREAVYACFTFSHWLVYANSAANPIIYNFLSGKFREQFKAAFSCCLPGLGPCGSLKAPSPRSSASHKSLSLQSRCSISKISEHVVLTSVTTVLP
The description is as above. The note with it: 10 μM test compound; CHO cells expressing human OX1 receptor; OX-A 1 nM. The format is cell-based. The method in brief: as §1

The subject of another data set is Male SD rats. As to the kind of experiment: Effect on sleep in rat (brain wave measurement). The format is in vivo. Here is the method:
Male SD rats were purchased from Charles River Laboratories Japan, Inc. They were used for an experiment after an acclimation period of at least one week after carrying them in the animal experimental facility. They were bred in the animal experimental facility with environment in which 12-hours light-dark cycle was performed, humidity and temperature were controlled, and free water drinking and feeding were allowed.
Electrodes for brain wave measurement were implanted in rat cortex, muscle electrodes were implanted in rat cervical muscle, and a transmitter was implanted under rat back skin. Rats in which chronic electrodes were implanted were fully acclimated to a box for brain wave measurement, and then the brain wave measurement was performed. The brain wave data was obtained using Dataquest ART manufactured by Data Sciences International. For analysis, wakefulness, non-REM sleep and REM sleep were automatically determined using Sleep Sign which is a program for sleep analysis study by KISSEI COMTEC Co., Ltd. The compound of Example 102 was subcutaneously administered at a dose of 3 mg/kg immediately before beginning of dark period. The sum of non-REM sleep and REM sleep 1 hr after the administration was regarded as total sleep. All data were shown as the mean+standard error. For statistical analysis, variance analysis to crossover was performed (*p ?0.05).

The nature of data set [1]: Measurement of solubility. The format is physicochemical. Particulars: aqueous buffer, thermodynamic from solid; Britton-Robinson's Buffer pH 3, 37° C., shaking 2 hr; crystals from n-heptane suspension. As for the experimental part: n-Heptane was added to the compounds of Examples 1, 2 and 102 at 40 mg/mL, respectively, and the mixtures were continued to be stirred at room temperature in a suspended state. After 3 to 7 days, the mixtures were filtered, and the obtained crystals as a sample were subjected to powder X-ray diffraction measurement (measurement condition: mentioned above) and solubility measurement.

Bounds are passed on as bounds.

Turning to `Cc1cc(N2CCN(C(=O)c3cc(Cl)ccc3-n3nccn3)C[C@H](C)O2)nc(C)n1` [Example 102, (5-chloro-2-(2H-1,2,3-triazol-2-yl)phenyl)((7S)-2-(2,6-dimethylpyrimidin-4-yl)-7-methyl-1,2,5-oxadiazepan-5-yl)methanone], at human OX2 receptor, the inhibition at 10 µM was 101%. The “Human Orexin1 receptor inhibition (at 10 μM)” value at human OX1 receptor amounted to 94%. For the same molecule, the “Total sleep compared with solvent control group” value in the data set on Male SD rats (3 mg/kg subcutaneous) is “significantly increased”. Further, the “Total sleep” value in the data set on Male SD rats (3 mg/kg subcutaneous immediately before dark period, sum of non-REM and REM sleep 1 hr after administration, mean) is recorded as 33.51 min. Moreover, the solubility at 2 h in data set [1] is not below 5000 µg/mL.

Values taken from patent US10131653B2, “Heterocyclic compound” (TAKEDA PHARMACEUTICAL COMPANY LIMITED, priority 2015, dated 2018).
